{"source": "paper PMC9800617", "about": "“Pharmacokinetics/pharmacodynamics of polymyxin B in patients with bloodstream infection caused by carbapenem-resistant Klebsiella pneumoniae” (Frontiers in Pharmacology, 2022)", "key": {"[1]": {"conditions": "cited from earlier work", "procedure": "Monte Carlo simulations were conducted for the probability of target attainment (PTA) analysis to guide the selection of optimal dosage regimens. Different dosage regimens were simulated by the PPK model and AUCss,24h were calculated. […] The maximal reductions in colony f ... || FIGURE 4 Probability of target attainment for different dosage regimens of polymyxin B against common carbapenem-resistant organisms according to PK/PD simulations. (A) Loading dose for three bacterial species. […] Or gani s m Dose Dosing MIC (mg/L) (m g/ k g) frequen c y 0.25 0.5 1 2 4 8 2 Loading 100.0 100.0 99.6 40.5 0 0 2.5 dose 100.0 100.0 100.0 71.0 2.0 0 Klebsiella 0.5 100.0 99.7 40.5 0.2 0 0 pneum oniae 0.75 Maintenance 100.0 100.0 90.6 11.0 0 0 1.0 dose, q12h 10 ..."}, "[2]": {"conditions": "24 critically ill patients, 0.45–3.38 mg/kg/day, no loading dose, ref Sandri et al., 2013, cited from earlier work", "procedure": "A good understanding of the PK of polymyxin B is essential for optimizing its clinical use. A previous population PK study examining the use of polymyxin B (0.45–3.38 mg/kg/day) in 24 critically ill patients reported an AUCss,24h of 66.9 ± 21.6 mg h/L (range, 16.4–117 mg h/L) and Css,avg of 2.79 ± 0.90 mg/L; no loading dose was administered ([Sandri et al., 2013])."}, "[3]": {"experiment": "Plasma pharmacokinetics of polymyxin B in CRKP BSI patients (LC-MS/MS; non-compartmental and compartmental)", "type": "in vivo, human", "conditions": "mean ± SD", "procedure": "Polymyxin B Sulphate for Injection (Lot No. A-1411137) containing 72.0% polymyxin B1 and B1-Ile and 12.1% polymyxin B2 was provided by SPH No. 1 Biochemical & Pharmaceutical Co., Ltd. (Shanghai, China). Prior to administration, polymyxin B was dissolved in 50–100 ml normal saline as per the manufacturer’s instructions then administered intravenously at a dose of 1.25 mg/kg every 12 h (2-h infusion) with an initial loading dose of 2.5 mg/kg (3-h infusion). Treatment lasted for 7–14 days as per treatment guidelines ([Rhodes et al., 2017]). Adverse events were closely monitored and recorded for each patient.\nBlood samples (4 mL) for pharmacokinetic analysis were collected in tubes with EDTA-K2 as the anticoagulant immediately before and after administration of the polymyxin B loading dose (the first dose) and immediately before administration of the second dose. Subsequent blood samples were collected during the second visit (5th, 6th or 7th dosing) consisting of a sample immediately prior to the infusion and at .5, 1, 2, 3, 4, 5, 6, 7, 8, 10, and 12 h following the commencement of the infusion. If possible, a final blood sample was collected 24 h after the commencement of the last infusion. All blood samples were centrifuged (4°C, 2,000 g) and plasma collected and stored at −80°C until analysis.\nThe concentrations of polymyxin B1 (including B1-Ile) and polymyxin B2 were determined using a validated liquid chromatography-tandem mass spectrometry (LC-MS/MS) method ([Liu et al., 2020]). […] The calibration range was .050–5.00 mg/L for polymyxin B1 and .011–.549 mg/L for polymyxin B2. The concentration of polymyxin B was calculated by the sum of concentrations of polymyxin B1 and B2 using molar terms and their molecular weights (polymyxin B1 is 1203.48 g/mol, polymyxin B2 is 1189.45 g/mol).\nThe PK parameters of polymyxin B were calculated using Phoenix WinNonlin 8.0 (Certara^TM, USA) with non-compartmental and compartmental methods. PPK analysis was conducted using NONMEM 7.4 (Icon Development Solutions, Ellicott City, MD) with G77 FORTRAN complier and FOCEI algorithm. Results from BSI patients in the present study and healthy subjects in a previous study were combined ([Liu et al., 2021]). One- and two-compartment models were tested during development of the base model. Models were developed and evaluated based on an objective function value and goodness-of-fit plots. The covariates were selected using a forward inclusion and backward elimination strategy. The screened covariates were sex, age, body weight, height, body mass index (BMI), creatinine clearance (CLcr), albumin, hemoglobin, total protein, total bilirubin, serum alanine aminotransferase (ALT), serum aspartate aminotransferase (AST), serum creatinine, Sequential Organ Failure Assessment (SOFA) score, and disease state (BSI patients were defined as 1 and healthy subjects were defined as 2). Covariates were included in the model based on the criteria of OFV requiring a decrease of 3.84 (p < .05) in the forward inclusion and an increase of greater of 10.83 (p < .001) in the backward elimination. Bootstrap sampling and visual predictive checks (VPCs) were utilized to validate the robustness of the final model."}, "[4]": {"conditions": "cited from earlier work", "procedure": "Our study is the first to specifically examine patients with BSI using the recommended dosage regimen of polymyxin B (2.5–3.0 mg/kg/d) ([Tsuji et al., 2019]). Previous studies utilizing PPK models to examine polymyxin B PK have included primarily critically ill patients with various medical conditions or patients with cystic fibrosis, and have employed a wide range of doses (0.45–3.38 mg/kg/day) ([Sandri et al., 2013]; [Avedissian et al., 2018]; [Kubin et al., 2018]; [Manchandani et al., 2018]; [Miglis et al., 2018]; [Yu et al., 2021]).", "remark": "listed apart in the source"}, "[5]": {"conditions": "human, steady state, 1.25 mg/kg/12 h (2-h iv infusion), plasma, LC-MS/MS, non-compartmental"}, "[6]": {"conditions": "healthy subjects, ref Liu et al., 2021"}}, "note": "Where two headings read alike, the source gives them in different places. Bridge positions count the residues as written; N and C are the ends. Square brackets hold non-standard residues; d marks the D form. Peptide text beside a SMILES is read from it. * marks the point of attachment. X1 = CC[C@H](C)CCCCC(=O)*; Dab = NCC[C@H](N)C(=O)O"}
{"compound": "CC[C@H](C)CCCCC(=O)N[C@@H](CCN)C(=O)N[C@H](C(=O)N[C@@H](CCN)C(=O)N[C@H]1CCNC(=O)[C@H]([C@@H](C)O)NC(=O)[C@H](CCN)NC(=O)[C@H](CCN)NC(=O)[C@H](CC(C)C)NC(=O)[C@@H](Cc2ccccc2)NC(=O)[C@H](CCN)NC1=O)[C@@H](C)O", "note": "[polymyxin B] (X1-[Dab]T[Dab][Dab][Dab][dF]L[Dab][Dab]T; lactam 4-C)", "values": [{"measurement": "unbound fraction in plasma", "setting": "[1]; as used in PK/PD simulations, given as fraction", "value": 0.42}, {"measurement": "unbound fraction (f) in human plasma", "setting": "[1]; human plasma, ref Sandri et al., 2013", "value": 42, "unit": "%"}, {"measurement": "AUCss,24h", "setting": "[2]; mean ± SD, SD", "value": "66900 ± 21600", "unit": "ng·h/mL"}, {"measurement": "Css,avg", "setting": "[2]; mean ± SD, SD", "value": "2790 ± 900", "unit": "ng/mL"}, {"measurement": "AUCss,24h, range", "setting": "[2]", "value": "16400 to 117000", "unit": "ng·h/mL"}, {"measurement": "Cmax", "setting": "[3]; human, 2.5 mg/kg loading dose, 3-h iv infusion, plasma, LC-MS/MS, read-out: Cmax following the loading dose", "value": "5530 ± 1800", "unit": "ng/mL"}, {"measurement": "level at 12 h", "setting": "[3]; human, 2.5 mg/kg loading dose, 3-h iv infusion, plasma, LC-MS/MS, read-out: Cmin (12 h) following the loading dose", "value": "1620 ± 410", "unit": "ng/mL"}, {"measurement": "clearance", "setting": "[3]; human, plasma, iv, two-compartmental analysis, read-out: CL, clearance from the central compartment (converted)", "value": 0.433, "unit": "mL/min/kg"}, {"measurement": "Vd", "setting": "[3]; [5]", "value": "0.49 ± 0.142", "unit": "L/kg"}, {"measurement": "half-life", "setting": "[3]; [5]", "value": "12.5 ± 3.11", "unit": "h"}, {"measurement": "AUC(0-t)", "setting": "[3]; human, steady state, 1.25 mg/kg/12 h (2-h iv infusion), plasma, LC-MS/MS, non-compartmental, read-out: AUC12h", "value": "39800 ± 12500", "unit": "ng·h/mL"}, {"measurement": "clearance", "setting": "[3]; human, steady state, 1.25 mg/kg/12 h (2-h iv infusion), plasma, LC-MS/MS, non-compartmental, read-out: CL (converted)", "value": 0.467, "unit": "mL/min/kg"}, {"measurement": "Cmax", "setting": "[3]; human, steady state, 1.25 mg/kg/12 h (2-h iv infusion), plasma, LC-MS/MS, non-compartmental, read-out: Cmax", "value": "5420 ± 1690", "unit": "ng/mL"}, {"measurement": "Cavg (Css,avg)", "setting": "[3]; steady state, 1.25 mg/kg/12 h (2-h iv infusion), plasma, LC-MS/MS, non-compartmental", "value": "3350 ± 1060", "unit": "ng/mL"}, {"measurement": "K10, elimination rate constant", "setting": "[3]; two-compartmental analysis", "value": "0.165 ± 0.065", "unit": "h⁻¹"}, {"measurement": "K12, rate constant central to peripheral compartment", "setting": "[3]; two-compartmental analysis", "value": "0.702 ± 0.395", "unit": "h⁻¹"}, {"measurement": "K21, rate constant peripheral to central compartment", "setting": "[3]; two-compartmental analysis", "value": "0.214 ± 0.137", "unit": "h⁻¹"}, {"measurement": "V1, central volume of distribution", "setting": "[3]; two-compartmental analysis", "value": "0.163 ± 0.036", "unit": "L/kg"}, {"measurement": "V2, peripheral volume of distribution", "setting": "[3]; two-compartmental analysis", "value": "0.565 ± 0.243", "unit": "L/kg"}, {"measurement": "clearance", "setting": "[4]; [6]", "value": "0.433 ± 0.067", "unit": "mL/min/kg"}, {"measurement": "half-life", "setting": "[4]; [6]", "value": "5.55 ± 0.942", "unit": "h"}, {"measurement": "volume of distribution", "setting": "[4]; [6]", "value": "0.204 ± 0.026", "unit": "L/kg"}, {"measurement": "dose excreted unchanged in the urine", "setting": "[4]; ref Zavascki et al., 2008", "value": "≤ 4", "unit": "%"}]}
